Source: patent US20230020663A1, “SULFONAMIDE INHIBITORS AS CTPS1 INHIBITORS” (Step Pharma S.A.S., priority 2019, published 2023)
Read-outs that look alike come from different tables or passages of the source.

Assays:
human CTPS1 = biological target: T1, human CTPS1 (Homo sapiens, UniProt P17812); assay: Human CTPS1 enzyme inhibition (ADP-Glo Max assay); assay type: biochemical
T1 construct: purchased Proteros biostructures GmbH
T1 sequence (P17812 1-591): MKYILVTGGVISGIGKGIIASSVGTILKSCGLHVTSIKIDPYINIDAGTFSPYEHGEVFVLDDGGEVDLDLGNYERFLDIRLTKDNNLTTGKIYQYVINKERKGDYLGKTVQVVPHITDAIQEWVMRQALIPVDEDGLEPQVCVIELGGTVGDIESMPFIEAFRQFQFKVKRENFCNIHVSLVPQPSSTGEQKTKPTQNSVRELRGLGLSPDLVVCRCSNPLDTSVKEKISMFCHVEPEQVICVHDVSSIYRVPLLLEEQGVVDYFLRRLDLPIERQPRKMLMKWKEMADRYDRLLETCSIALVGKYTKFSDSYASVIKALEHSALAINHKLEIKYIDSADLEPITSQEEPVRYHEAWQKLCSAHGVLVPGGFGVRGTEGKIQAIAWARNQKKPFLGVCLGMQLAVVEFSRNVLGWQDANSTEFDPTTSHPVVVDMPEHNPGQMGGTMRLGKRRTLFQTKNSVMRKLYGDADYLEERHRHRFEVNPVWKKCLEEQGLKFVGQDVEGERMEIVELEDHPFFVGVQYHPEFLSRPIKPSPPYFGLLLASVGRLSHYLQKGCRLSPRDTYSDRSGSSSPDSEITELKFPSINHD
Method: The enzyme inhibitory activities of compounds invented against the target of interest were determined using the ADP-Glo™ Max assay (Promega, UK). Assays for human CTPS1 were performed in 1× assay buffer containing 50 mM Tris, 10 mM MgCl2, 0.01% Tween-20, pH to 8.0 accordingly. Finally, immediately before use, L-cysteine was added to the 1× assay buffer to a final concentration of 2 mM. All reagents are from Sigma-Aldrich unless specified otherwise. Human full length active C-terminal FLAG-Hiss-tag CTPS1 (UniProtKB—P17812, CTPS[1-591]-[…]) was obtained from Proteros biostructures GmbH.
3× human CTPS1 protein was prepared in 1× assay buffer to the final working protein concentration required for the reaction. A 2 uL volume per well of 3× human CTPS1 protein was mixed with 2 uL per well of 3× test compound (compound prepared in 1× assay buffer to an appropriate final 3× compound concentration respective to the concentration response curve designed for the compounds under test) for 10 minutes at 25° C. The enzymatic reaction was then initiated by addition of a 2 uL per well volume of a pre-mixed substrate mix (UltraPure ATP from ADP-Glo™ Max kit (0.31 mM), GTP (0.034 mM), UTP (0.48 mM) and L-glutamine (0.186 mM)) and the mixture was incubated for an appropriate amount of time within the determined linear phase of the reaction at 25° C. under sealed plate conditions with constant agitation at 500 revolutions per minute (rpm). ADP-Glo™ Max reagent was added for 60 minutes (6 μL per well) and subsequently ADP-Glo™ Max development reagent was added for 60 minutes (12 uL per well) prior to signal detection in a microplate reader (EnVision® Multilabel Reader, Perkin Elmer). Following each reagent addition over the course of the assay, assay plates were pulse centrifuged for 30 seconds at 500 rpm.
In all cases, the enzyme converts ATP to ADP and the ADP-Glo™ Max reagent subsequently depletes any remaining endogenous ATP in the reaction system. The ADP-Glo™ Max detection reagent converts the ADP that has been enzymatically produced back into ATP and using ATP as a substrate together with luciferin for the enzyme luciferase, light is generated which produces a detectable luminescence. […] The percentage inhibition produced by each concentration of compound was calculated using the equation shown below: […]
(§1) Percentage inhibition was then plotted against compound concentration, and the 50% inhibitory concentration (IC50) was determined from the resultant concentration-response curve.

human CTPS1 versus CTPS2 = assay: Human CTPS1 versus CTPS2 selectivity assessment by RapidFire/MS analysis; assay type: biochemical; details: RapidFire/MS IC50 ratio
Method: Human CTPS1 versus CTPS2 Selectivity Assessment by RapidFire/MS Analysis.
The enzyme inhibitory activities against each target isoform of interest may be determined for the compounds of the invention using an optimised RapidFire high-throughput mass spectrometry (RF/MS) assay format. RF/MS assays for both human CTPS1 and CTPS2 may be performed in assay buffer consisting of 50 mM HEPES (Merck), 20 mM MgCl2, 5 mM KCl, 1 mM DTT, 0.01% Tween-20, pH to 8.0 accordingly. Human full-length active C-terminal FLAG-His-tag CTPS1 (UniProtKB—P17812, CTPS[1-591]-[…]) may be obtained from Proteros biostructures GmbH. Human full length active C-terminal FLAG-His-Avi tagged CTPS2 (UniProtKB-Q9NRF8, CTPS2 [1-586]-[…]) may be obtained from Harker Bio.
Human CTPS (1 or 2) protein may be prepared in 1× assay buffer to the final working protein concentration required for the reaction. A 2 uL volume per well of 2×CTPS (1 or 2) protein may be mixed with 40 nL of compound using acoustic (ECHO) delivery and incubated for 10 minutes at 25° C. Each isoform enzymatic reaction may be subsequently initiated by addition of 2 uL per well of a 2× substrate mix in assay buffer. For hCTPS1: ATP (0.3 mM), UTP (0.2 mM), GTP (0.07 mM) and L-glutamine (0.1 mM). For hCTPS2: ATP (0.1 mM), UTP (0.04 mM), GTP (0.03 mM) and L-glutamine (0.1 mM). Each mixture may be incubated for an appropriate amount of time per isoform within the determined linear phase of the reaction at 25′C. A 60 uL volume of stop solution (1% formic acid with 0.5 uM ^13C9-^15N3-CTP in H2O) may be added and the plate immediately heat-sealed and centrifuged for 10 minutes at 4,000 rpm. Following centrifugation, plates may be loaded onto the Agilent RapidFire microfluidic solid phase extraction system coupled to an API4000 triple quadrupole mass spectrometer (RF/MS) for analysis.
In all cases, the enzyme converts UTP to CTP. Highly specific and sensitive multiple reaction monitoring (MRM) MS methods may be optimised for the detection of the enzymatic reaction product, CTP, and the stable isotope labelled product standard ^13C9-^15N3-CTP. Readout for data analysis may be calculated as the ratio between the peak area of the product CTP and the internal standard ^13C9-^15N3-CTP. For data reporting, the following equation may be used: […]
For each screening plate, the means of the negative (DMSO) and positive control values were used for the calculation of the respective assay window (S/B) and Z′ values. The median of the respective control values was used for calculation of percent inhibition according to the following equation: […]
as §1
Fold selectivity between CTPS1 and CTPS2 was subsequently calculated according to the following equation: […]

[1] = Table 25, compounds wherein R1 is C1-5fluoroalkyl, read-out: CTPS1 (Human CTPS1 Enzyme Inhibition data grouped by potency range)

## CC(C)Oc1cncc(-c2ccc(NC(=O)C(C)(C)c3ccnc(NS(=O)(=O)C4CC4)n3)nc2)n1 [Example P9]
Human CTPS1; Table 23, read-out: CTPS1 (Human CTPS1 Enzyme Inhibition data grouped by potency range)
  IC50: ≤ 100 nM
Human CTPS1 versus CTPS2; Table 26
  Selectivity (fold selectivity between CTPS1 and CTPS2): +++ (>60 fold (+++))

## CCOc1cncc(-c2ccc(NC(=O)C3(c4ccnc(NS(=O)(=O)N(C)C)n4)CCOCC3)nc2)n1 [Example P248]
Human CTPS1; Table 24, read-out: CTPS1 (Human CTPS1 Enzyme Inhibition data grouped by potency range)
  IC50: 100 to 1000 nM
Human CTPS1 versus CTPS2; Table 27
  Selectivity (fold selectivity between CTPS1 and CTPS2): +++ (>60 fold (+++))

## CCOc1cncc(-c2ccc(NC(=O)C3(c4ccnc(NS(=O)(=O)CC(F)F)n4)CCOCC3)nc2)n1 [Example P271, 4-(2-((2,2-difluoroethyl)sulfonamido)pyrimidin-4-yl)-N-(5-(6-ethoxypyrazin-2-yl)pyridin-2-yl)tetrahydro-2H-pyran-4-carboxamide]
Human CTPS1; [1]
  IC50: ≤ 100 nM

## CCOc1cncc(-c2ccc(NC(=O)C(F)(CC)c3ccnc(NS(=O)(=O)CC(F)F)n3)nc2)n1 (stereo not drawn) [Example P284, 2-(2-((2,2-difluoroethyl)sulfonamido)pyrimidin-4-yl)-N-(5-(6-ethoxypyrazin-2-yl)pyridin-2-yl)-2-fluorobutanamide]
Human CTPS1; [1]
  IC50: ≤ 100 nM
